According to patent US20220089578A1, “COMPOUNDS AS GLP-1R AGONISTS” (Terns Pharmaceuticals, Inc., priority 2020, published 2022):

Target: human GLP-1R (Homo sapiens, UniProt P43220)
Test: GLP-1R Cell Assay 2: CHO-K1_hGLP-1Rlow_clone10 cells, LANCE Ultra cAMP TR-FRET assay
Assay type: cell-based
Set-up: expressed in transfected cells
Conditions: Table 3, percent activation relative to control GLP-1 peptide agonist
Experimental: Stable cell lines expressing high and low GLP-1R surface expression were generated in CHO-K1 cells transfected (Fugene 6) with a puromycin selectable DNA plasmid encoding human GLP-1R receptor (accession number: NM_002062.5) under control of an EF1A promoter. Transfected cells were seeded into 24-well plates (9,000 cells/well) containing complete medium and incubated in a humidified incubator at 37° C. with 5% carbon dioxide. After overnight incubation, medium was replaced with complete medium supplemented with puromycin (6 μg/mL) and refreshed every 2-3 days to select for stably transfected cells. Individual pools of selected cells were expanded prior to analysis for responsiveness to GLP-1 control peptide using a TR-FRET assay to detect cAMP (LANCE Ultra cAMP Assay, Perkin Elmer). Briefly, cells were collected in Versene solution, plated in 384-well plates (1,000 cells/well) and combined with serially diluted GLP-1R control peptide (10 nL) using an acoustic dispenser (ECHO). Plates were incubated for 30 minutes at 25° C. prior to the addition of EU-cAMP tracer (5 μL) and Ulight-anti-cAMP (5 μL) reagents to each well, followed by 15 minutes incubation at 25° C. TR-FRET signal was detected using an EnVision Multimode Plate Reader (excitation=320 nm; emission=615 and 655 nm). Dose-response curves were used to generate EC50 values as a measure of responsiveness to the GLP-1R control peptide. Selected cell lines were monitored for responsiveness over multiple passages to ensure stability. […] Briefly, GLP-1R expression was analyzed by flow cytometry using a fluorescein-labeled Exendin-4 peptide fluorescent probe (FLEX). Cells were harvested in Versene solution and washed 3-times with PBS+0.5% BSA before incubation with FLEX reagent (10 μM) for 2 hours at room temperature. After incubation, cells were washed 3-times in PBS+0.5% BSA before final resuspension in PBS prior to analysis by flow cytometry to measure FLEX mean fluorescence intensity (MFI) as a measure of GLP-1R expression on the cell surface.
For compound testing in the CHO-K1_hGLP-1Rlow_clonel0 cell lines, cells were seeded in 384-well plates (1,000 cells/well). Test compounds were serially diluted in DMSO (10-point, 3-fold dilution), added to wells using an ECHO dispenser (10 nL/well) and plates were centrifuged for 1 min and agitated for 2 min at room temperature prior to 30-minute incubation at 25° C. After incubation, Eu-cAMP (5 p,L) and Ulight-anti-cAMP (5 μL) reagents were added to each well, followed by centrifugation for 1 minute, agitation for 2 minutes at room temperature, and final incubation of the plates at 25° C. for 15 minutes. Plates were read using an EnVision microplate reader (excitation=320 nm; emission=615 and 655 nm). Dose-response curves were generated from duplicate wells based on percent activation calculated relative to a control GLP-1 peptide agonist that was run in parallel. EC50 values were determined by fitting percent activation as a function of compound concentration using the Hill equation (XLfit).

Chain of human GLP-1R (P43220 24-463): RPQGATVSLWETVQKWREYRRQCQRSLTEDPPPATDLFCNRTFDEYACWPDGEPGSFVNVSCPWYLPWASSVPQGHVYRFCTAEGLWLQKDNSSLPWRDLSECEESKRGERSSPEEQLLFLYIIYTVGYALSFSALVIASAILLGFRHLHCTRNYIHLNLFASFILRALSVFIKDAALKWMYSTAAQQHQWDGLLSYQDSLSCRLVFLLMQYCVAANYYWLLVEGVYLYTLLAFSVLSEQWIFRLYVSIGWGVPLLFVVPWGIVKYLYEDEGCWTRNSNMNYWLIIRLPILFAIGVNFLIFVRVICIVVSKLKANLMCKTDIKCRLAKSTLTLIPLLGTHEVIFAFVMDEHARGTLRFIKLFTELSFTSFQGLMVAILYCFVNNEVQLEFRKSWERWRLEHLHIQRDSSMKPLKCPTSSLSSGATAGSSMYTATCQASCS

| SMILES | EC50 [nM] |
| --- | --- |
| O=C(O)c1ccc2nc(CN3CCC(c4cccc(OCc5nc(C6CC6)cs5)n4)CC3)n(C[C@@H]3CCO3)c2c1 [Compound 181, (S)-2-((4-(6-((4-cyclopropylthiazol-2-yl)methoxy)pyridin-2-yl)piperidin-1-yl)methyl)-1-(oxetan-2-ylmethyl)-1H-benzo[d]imidazole-6-carboxylic acid] | 22.8 |
| O=C(O)c1ccc2nc(CN3CCC(c4cccc(OCc5coc6c(C(F)(F)F)cc(Br)cc56)n4)CC3)n(C[C@@H]3CCO3)c2c1 [Compound 182, (S)-2-((4-(6-((5-bromo-7-(trifluoromethyl)benzofuran-3-yl)methoxy)pyridin-2-yl)piperidin-1-yl)methyl)-1-(oxetan-2-ylmethyl)-1H-benzo[d]imidazole-6-carboxylic acid] | 33.9 |
| O=C(O)c1ccc2nc(CN3CCC(c4cccc(Oc5ccccc5)n4)CC3)n(C[C@@H]3CCO3)c2c1 [Compound 183, (S)-1-(oxetan-2-ylmethyl)-2-((4-(6-phenoxypyridin-2-yl)piperidin-1-yl)methyl)-1H-benzo[d]imidazole-6-carboxylic acid] | > 10000 |
| CCn1cncc1Cn1c(CN2CC[C@@]3(c4nccc(OCc5ccc(C#N)cc5F)n4)C[C@H]3C2)nc2ccc(C(=O)O)cc21 [Compound 185-P1, 2-(((1R,6S)-6-(4-((4-cyano-2-fluorobenzyl)oxy)pyrimidin-2-yl)-3-azabicyclo[4.1.0]heptan-3-yl)methyl)-1-((1-ethyl-1H-imidazol-5-yl)methyl)-1H-benzo[d]imidazole-6-carboxylic acid] | 1.69 |
| CCn1cncc1Cn1c(CN2CC[C@]3(c4nccc(OCc5ccc(C#N)cc5F)n4)C[C@@H]3C2)nc2ccc(C(=O)O)cc21 [Compound 185-P2, 2-(((1S,6R)-6-(4-((4-cyano-2-fluorobenzyl)oxy)pyrimidin-2-yl)-3-azabicyclo[4.1.0]heptan-3-yl)methyl)-1-((1-ethyl-1H-imidazol-5-yl)methyl)-1H-benzo[d]imidazole-6-carboxylic acid] | 18.1 |
| CCn1cncc1Cn1c(CN2CC[C@@]3(c4nccc(N5CCc6cc(C#N)cc(F)c6C5)n4)C[C@H]3C2)nc2ccc(C(=O)O)cc21 [Compound 186-P1] | 646 |
| N#Cc1cccc2c(COc3cccc(C4CCN(Cc5nc6ccc(C(=O)O)cc6n5C[C@@H]5CCO5)CC4)n3)csc12 [Compound 187, (S)-2-((4-(6-((7-cyanobenzo[b]thiophen-3-yl)methoxy)pyridin-2-yl)piperidin-1-yl)methyl)-1-(oxetan-2-ylmethyl)-1H-benzo[d]imidazole-6-carboxylic acid] | 13.2 |
